Where “and” joins values, the source holds several entries; their conditions need not be identical. Equal values may be shown once.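 1) Cells in 96-well plates. 2) Compound, 48 h, 5 concentrations. 3) Linear interpolation between surrounding doses. 4) Unreached endpoint = highest concentration. GI50 = concentration required for 50% inhibition of growth. TGI: total growth inhibition.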
How the values were obtained:
Assay in all cases: NCI-60 cell line screen, 48 h
IGROV1 ovarian = test system: IGROV1 ovarian
BT-549 breast = test system: BT-549 breast
SNB-19 CNS = test system: SNB-19 CNS
SW-620 colon = test system: SW-620 colon
786-0 renal = test system: 786-0 renal
A549 NSCLC = test system: A549 NSCLC
NCI/ADR-RES ovarian = test system: NCI/ADR-RES ovarian
OVCAR-4 ovarian = test system: OVCAR-4 ovarian
MDA-MB-231 breast = test system: MDA-MB-231 breast
HOP-62 NSCLC = test system: HOP-62 NSCLC

SMILES | GI50 (IGROV1 ovarian) [µM] | TGI (IGROV1 ovarian) [µM] | GI50 (BT-549 breast) [µM] | TGI (BT-549 breast) [µM] | GI50 (SNB-19 CNS) [µM] | TGI (SNB-19 CNS) [µM] | GI50 (SW-620 colon) [µM] | TGI (SW-620 colon) [µM] | GI50 (786-0 renal) | TGI (786-0 renal) | GI50 (A549 NSCLC) [µM] | TGI (A549 NSCLC) [µM] | GI50 (NCI/ADR-RES ovarian) [µM] | TGI (NCI/ADR-RES ovarian) | GI50 (OVCAR-4 ovarian) [µM] | TGI (OVCAR-4 ovarian) [µM] | GI50 (MDA-MB-231 breast) [µM] | TGI (MDA-MB-231 breast) [µM] | GI50 (HOP-62 NSCLC) [µM] | TGI (HOP-62 NSCLC) [µM]
O=C1/C(=C\c2ccccc2)C2OCC=C3CN4CCC56c7ccccc7N1C5C2C3CC46 (stereo not drawn) | 4.69 | > 100 | 34.2 | > 100 | > 100 | > 100 | > 100 | > 100 | 9.86 µM | > 100 µM | > 100 | > 100 | > 100 | > 100 µM | > 100 | > 100 | 6.92 | > 100 | 54.3 | > 100
CC(N1CCOCC1)C(O)(c1ccccc1)c1ccccn1 (stereo not drawn) | – | > 100 | – | > 100 | – | > 100 | – | > 100 | – | > 100 µM | – | > 100 | – | > 100 µM | – | > 100 | – | > 100 | – | > 100
NC(=O)c1ccc(N(C(N)=O)c2c(F)cccc2F)nc1-c1ccc(F)cc1F | > 100 | > 100 | > 100 | > 100 | > 100 | > 100 | > 100 | > 100 | > 100 µM | > 100 µM | > 100 | > 100 | > 100 | > 100 µM | > 100 | > 100 | > 100 | > 100 | > 100 | > 100
Nc1c(C(=O)Nc2cccc3ccccc23)sc2nc3c(cc12)C(=O)CCC3 | 0.52 | > 46.7 | 3.08 | > 67.1 | 0.603 | > 81 | 0.222 | > 100 | 0.388 µM | 35.8 µM | 0.172 | > 46.1 | 0.225 | – | 2.77 | > 51.7 | 0.379 | 6.92 | 0.315 | > 38.2
Cc1cc(Br)cc(C)c1NC(=O)C(=O)Nn1c(=S)[nH]c2ccccc2c1=O | – | > 100 | – | > 100 | – | > 100 | – | > 100 | – | > 100 µM | – | > 100 | – | > 100 µM | – | > 100 | – | > 100 | – | > 100
C=CC(C)(O)CC/C=C(\CO)C(=O)OC1C(C)OC(O[C@](C)(C=C)CC/C=C(\CO)C(=O)O[C@H]2C[C@@]3(C(=O)OC4OC(CO)C(O)C(O)C4OC4OC(C)C(OC5OC(CO)C(O)C5O)C(OC5OC(CO)C(O)C(O)C5O)C4O)C(CC2(C)C)C2=CCC4[C@@]5(C)CC[C@H](OC6OC(COC7OC(C)C(O)C(O)C7OC7OCC(O)C(O)C7O)C(O)C(O)C6NC(C)=O)C(C)(C)C5CC[C@@]4(C)[C@]2(C)C[C@H]3O)C(O)C1O (stereo partly drawn) | 2.96 | 9.63 | 5.04 | 10.6 | 0.107 | 1.12 | 0.143 | 4.27 | 0.155 µM | 0.668 µM | 0.286 | 1.49 | 2.68 | 7.84 µM | 0.11 | 0.47 | 0.0722 | 0.39 | 0.275 | 1.58
Cc1cc2nc3c4ccc(Br)cc4n(CCN(C)C)c3nc2cc1C | 1.12 | 3.97 | 1.71 | 3.75 | 1.6 | 7.52 | 0.478 | 1.84 | 1.44 µM | 7.65 µM | 1.16 | 10.3 | 0.609 | 4.69 µM | 1.62 | 7.49 | 1.97 | 7.45 | 1.71 | 10.7
CC(/C=N/N=C(N)N)=N\N=C(N)N | – | 1640 | 40.9 | 928 | 14.5 | 722 | 15 | 2070 | 6.12 µM and 1.67 µM | > 83.6 µM and 19.7 µM | > 52.4 | 1780 | 20.8 | 61.1 µM and 126 µM | 13.2 | 95.3 | 7.67 | 965 | 14.8 | 46.9
Cc1cc2nc(-c3c(F)cccc3Cl)n(Cc3c(F)cccc3Cl)c2cc1C | 33 | > 100 | 18.5 | 46.2 | 25.5 | 93.7 | 11.8 | 32.4 | 15.8 µM | 31.3 µM | 11.7 | 33.1 | 12.5 | 26.3 µM | 19 | 74.1 | 10.4 | 23.1 | 13.9 | 29.1

— PubChem BioAssay (NCI)
